Legend:
TGFβ1-induced hHSC = experiment: α-SMA ELISA in TGFβ1-induced human primary hepatic stellate cells; type: cell-based
Protocol: (§1) The human primary hepatic stellate cells (hHSC) (Innoprot) were cultured in STeCM medium (ScienCell cat #5301) that was supplemented with 2% fetal bovine serum (FBS, ScienCell cat #0010), 1% penicillin/streptomycin (ScienCell cat #0503) and stellate cell growth supplement (SteCGS; ScienCell cat #5352). Cell culture flasks were coated with Poly-L Lysine (Sigma cat #P4707) for a better adherence.
For these experiments, a checkerboard matrix was generated. ELA and component (ii) stocks were serially diluted in DMSO in 5-points series in a row (ELA) and a 11-points series in a column (component (ii)) of a 96-well plate. Subsequently, the 5×11 combination matrix was generated by 1:1 mixing of all single agent concentrations. The test concentrations for each compound were chosen based on the respective IC50 of each compound as single agent obtained by measuring α-SMA content in the HSC model stimulated with TGF-β1.
The human primary hepatic stellate cells (hHSC) (Innoprot) were cultured under standard conditions, as described above. The cells were subsequently plated at a density of 2×10^4 cells/well into 96-well plates for the measure of α-SMA by ELISA. The next day, cell-culture medium was removed, and cells were washed with PBS (Invitrogen cat #14190). hHSC were deprived for 24 hours in serum-free and SteCGS-free medium. For the treatments with ELA, component (ii) and the respective ELA/component (ii) combinations, the serum-deprived hHSC were preincubated for 1 hour with the compounds followed by addition of the profibrogenic stimuli TGF-β1 (PeproTech cat #100-21, 1 ng/mL) in serum-free and SteCGS-free medium for an additional 48 hour period.
The level of α-SMA was measured using a Sandwich ELISA. Briefly, the wells of an ELISA plate were first coated with the capture antibody (mouse monoclonal anti-ACTA2, Abnova) at 4° C. overnight. After 3 washes in PBS+0.2% Tween 20, a blocking solution consisting of PBS+0.2% BSA was added for one hour followed by another washing cycle. The cell lysates were transferred into the wells for binding to the capture antibody for a period of 2 h at room temperature. After the washing procedure, the detection antibody (biotinylated mouse monoclonal anti-ACTA2, Abnova) was added for 2 hours at room temperature followed by 3 washes. For the detection, an HRP-conjugated Streptavidin (R&D Systems cat #DY998) was first applied for 30 min at room temperature. After washing, the HRP substrate TMB (BD, #555214) was added and incubated for 7 min at room temperature in the dark. Upon oxidation, TMB forms a water-soluble blue reaction product that becomes yellow with addition of sulfuric acid (solution stop), enabling accurate measurement of the intensity at 450 nm using a spectrophotometer. The developed color is directly proportional to the amount of α-SMA present in the lysate.
as §1, with “Cell-culture” for “Cell culture”
For these experiments, a checkerboard matrix was generated. CVC and Elafibranor stocks were serially diluted in DMSO in a 5-points series in a row (Elafibranor) and a 6-points series in a column (Cenicriviroc) of a 96-well plate. Subsequently, the […] combination matrix was generated by 1:1 mixing of all single agent concentrations. The test concentrations for each compound were chosen based on the respective IC50 of each compound as single agent obtained by measuring α-SMA content in the HSC model stimulated with TGF-β1.
The human primary hepatic stellate cells (hHSC) (Innoprot) were cultured under standard conditions, as described above. […]

[1] = test system: mice with NASH (CDFF-fed mice); experiment: Mouse fibrosing-NASH model (CDFF diet, 8 weeks); type: in vivo, C57Bl/6J mice
Protocol: The preventive effects of the combinations of elafibranor with selonsertib, GKT-831 or GS-0976 were assessed in mice fed a choline-deficient, […] diet (CDAA) supplemented with 2% cholesterol, 30% milk fat diet and high fructose corn syrup 55 (55% fructose/45% glucose for a final concentration of 42 g/L) in drinking water (Mells et al J Nutr Biochem 2015) (CDFF diet). 5-6 weeks old male C57Bl/6J mice were fed a control (CSAA) diet (n=4), CDFF (n=12), or CDFF supplemented with elafibranor (1 or 3 mg/kg/day), selonsertib (30 mg/kg/day), GKT-831 ([…]) alone or in combination (n=8 per group) for 8 weeks.
The body weight, the food and water intake were monitored twice per week. On the last day of treatment, plasma samples were obtained from retro-orbital blood sampling and mice were sacrificed after a 6 h-fasting period. The liver was rapidly excised for biochemical and histological analyses. All animal procedures were performed according to standard protocols and in accordance with the standard recommendations for the proper care and use of laboratory animals.
The liver slices were fixed in a formalin 4% solution. Then, the liver pieces were washed 30 minutes in PBS, and dehydrated in ethanol solutions (successive baths at 70, 80, 95 and 100% ethanol). The liver pieces were incubated in three different baths of Xylene (Honeywell cat #534056), followed by two baths in liquid paraffin (59° C.). Liver pieces were then put into racks that were gently filled with HISTOWAX to completely cover the tissue.
Liver sections were deparaffinized, rehydrated and incubated for 3 minutes in Mayer's Hematoxylin (Microm, cat #F/C0303). Then, the liver sections were rinsed in water and incubated 1 minute in a Eosin Y 0.5% alcoholic (VWR, cat #1.02439.0500) and Erythrosin 0.5% solution (VWR, cat #1.15936.0010), and rinsed in with ethanol. Sections were then incubated for 2 minutes in Safranin, and were eventually dehydrated and mounted using the CV Mount medium (Leica, cat #046430011).
(§2) Liver sections were deparaffinized, rehydrated and incubated for 15 minutes in a solution of Fast Green FCF 0.1% (Sigma-Aldrich, cat #F7258) before rinsing in a bath of 0.5% acetic acid (Panreac, cat #131008.1611). Then, the liver sections were rinsed in water and incubated 30 minutes in a solution of 0.1% sirius red (Direct Red 80, Fluka cat #43665) in saturated aqueous picric acid (Sigma-Aldrich cat #P6744). Sections were then dehydrated, and mounted using the CV Mount medium (Leica, cat #14046430011).
(§3) A technician blinded to the source of each liver specimen performed histological examinations. Virtual slides were generated using the Pannoramic 250 scanner from 3D Histech. For each animal, a score summarizing the main histological lesions of NASH was attributed according to the NASH Clinical Research Network (Kleiner 2005, Brunt 1999). Briefly, steatosis, lobular inflammation and hepatocyte ballooning were scored. The NAFLD Activity Score (NAS) was established for each individual as the unweighted sum of the steatosis (0-3), lobular inflammation (0-3) and the ballooning (0-2) injury grading.
(§4) Using Quant Center software (3D Histech, including Pattern Quant and Histo Quant modules), collagen-stained areas were quantified. Briefly, Pattern Quant was used to detect the tissue and measure its surface. Then, Histo Quant was used to detect the stained collagen content and measure its surface, based on a color threshold method. The fibrosis area was then expressed as the percentage of the collagen surface to the whole tissue per animal.
The hepatic collagen content was determined using the appropriate QuickZyme kit (Total collagen assay, cat #QZB-totcol2). The assay is based on the detection of hydroxyproline, which is a non-proteinogenic amino acid mainly found in the triple helix of collagen. […]

[2] = test system: fibrosing NASH-model of rats fed a CDAA+1% cholesterol diet; experiment: Chronic CDAA+1% cholesterol rat model: liver histology (picrosirius fibrosis surface, NASH lesions); type: in vivo, Wistar rats; details: GFT505 3 mg/kg/d, OCA 10 mg/kg/d, alone or combined; 12 weeks in diet
Protocol: (§5) The preventive effects of Elafibranor alone, OCA alone and the combination of both were assessed in a fibrosing NASH-model of rats fed a CDAA+1% cholesterol diet. 150-175 g male Wistar rats were fed a control (CSAA) diet, CDAA+1% cholesterol diet, or CDAA+1% cholesterol diet supplemented with Elafibranor 1, 3 and 10 mg/kg/day, OCA 10 and 30 mg/kg/day or combined drugs (Elafibranor 1, 3 and 10 mg/kg/day combined to OCA 10 mg/kg/day) for 12 weeks.
(§6) The body weight and the food intake were monitored twice per week. On the last day of treatment, rats were sacrificed after a 6 h fasting period. The liver was rapidly excised for biochemical and histological studies.
The liver slices were first fixed for 12 hours in formalin 4% solution. Then, the liver pieces were washed 30 minutes in PBS, and dehydrated in ethanol solutions (successive baths at 70, 80, 95 and 100% ethanol). The liver pieces were incubated in three different baths of Xylene (Sigma-Aldrich cat #534056), followed by two baths in liquid paraffin (56° C.). Liver pieces were then put into racks that were gently filled with HISTOWAX to completely cover the tissue.
The paraffin blocks containing the tissue pieces were removed from the racks and stored at room temperature. The liver blocks were cut into 3 μm slices.
Liver sections were deparaffinized, rehydrated and incubated for 3 minutes in Mayer's Hematoxylin (Microm, cat #F/C0303). Then, the liver sections were rinsed in water and incubated 1 minute in Eosin G (VWR, cat #1.09844.1000). Sections were rinsed in water then dehydrated, and mounted using the CV Mount medium (Leica, cat #14046430011).
as §2
as §3, with “hepatocytes” for “hepatocyte”, “(NAS score)” for “(NAS)”
as §4

[3] = test system: fibrosing NASH-model of rats fed a CDAA+1% cholesterol diet; experiment: Chronic CDAA+1% cholesterol rat model: hepatic collagen content (hydroxyproline); type: in vivo, Wistar rats; details: GFT505 3 mg/kg/d, OCA 10 mg/kg/d, alone or combined; 12 weeks in diet
Protocol: as §5, §6
The hepatic collagen content was determined using the appropriate QuickZyme kit (Total collagen assay, cat #QZB-totcol2). The assay is based on the detection of hydroxyproline, which is a non-proteinogenic amino acid mainly found in the triple helix of collagen. Thus, hydroxyproline in tissue hydrolysates can be used as a direct measure of the amount of collagen present in the tissue (without discrimination between procollagen, mature collagen and collagen degradation products).
Complete hydrolysis of tissue samples in 6M HCl at 95° C. is required before dosing the hydroxyproline. The assay results in the generation of a chromogen with a maximum absorbance at 570 nm. Results are expressed as mg of collagen/g of liver.

[4] = test system: fibrosing NASH-model of rats fed a CDAA+1% cholesterol diet; experiment: Chronic CDAA+1% cholesterol rat model: hepatic gene expression (qPCR); type: in vivo, Wistar rats; details: liver; GFT505 3 mg/kg/d, OCA 10 mg/kg/d, alone or combined; 12 weeks
Protocol: as §5, §6
Total RNA was isolated from rat livers using RNeasy Mini Kit (Qiagen) following manufacturer's instructions. Total RNA were reverse transcribed into cDNA using M-MLV RT (Moloney Murine Leukemia Virus Reverse Transcriptase) (Invitrogen cat #28025) in 1×RT buffer (Invitrogen), 0.5 mM DTT (Invitrogen), 0.18 mM dNTPs (Promega), 200 ng pdN6 (Amersham) and 30 U of RNase inhibitor (Promega).
Quantitative PCR was then carried out using the CFX96 TOUCH Real-Time PCR Detection System (Biorad). Briefly, the PCR reactions were performed in 96-WP format in 25 μl of total volume containing 1 μL of reverse transcription reaction, 0.5 μL of reverse and forward primers (10 pmol each), and 12.5 μl of 2×iQ SYBR Green Supermix (BioRad), using the following primer sequences:
Expression levels were normalized using the expression of RPLP0 gene as a housekeeping gene of reference in samples. For each gene, the standard curves were drawn by selecting the best points (at least three points) in order to have PCR reaction efficiency close to 100% and a correlation coefficient close to 1. Expression levels were determined using the standard curve equation for both the housekeeping gene and the target gene (taking into account the specific PCR efficiency of each target gene).

CCCCOCCOc1ccc(-c2ccc3c(c2)/C=C(/C(=O)Nc2ccc([S@@+]([O-])Cc4cncn4CCC)cc2)CCCN3CC(C)C)cc1 [CVC, Cenicriviroc, reference compound]
antifibrotic activity (α-SMA), single agent (TGFβ1-induced hHSC; 5 μM of CVC alone): does not show any antifibrotic activity | antifibrotic activity (α-SMA), single agent (TGFβ1-induced hHSC; TGFβ1-activated hHSC, dose range): did not show a significant effect at all doses

CN(C)c1cccc(-c2c3c(=O)n(-c4ccccc4Cl)[nH]c3cc(=O)n2C)c1 [GKT-831, 2-(2-chlorophenyl)-4-[3-(dimethylamino)phenyl]-5-methyl-1H-pyrazolo[4,3-c]pyridine-3,6(2H,5H)-dione, reference compound]
effect on NASH and fibrosis ([1]; GKT-831 60 mg/kg/day alone): no beneficial effect

COc1ccccc1[C@H](Cn1c(=O)n(C(C)(C)C(=O)O)c(=O)c2c(C)c(-c3ncco3)sc21)OC1CCOCC1 [GS-0976, reference compound]
effect on liver fat and body weight ([1]; GS-0976 30 mg/kg/day alone): mild beneficial effect

CC[C@H]1[C@@H](O)[C@@H]2[C@H](CC[C@]3(C)[C@@H]([C@H](C)CCC(=O)O)CC[C@@H]23)[C@@]2(C)CC[C@@H](O)C[C@@H]12 [OCA, obeticholic acid, reference compound]
Fibrosis surface, percentage over the untreated CDAA + 1% cholesterol rats [2]: 74% ± 45% | Hepatic collagen content, percentage over the untreated CDAA + 1% cholesterol rats [3]: 67% ± 23% | CCR5 mRNA level (marker of inflammation), percentage over the untreated CDAA + 1% cholesterol rats [4]: 81% ± 28% | TGFβ1 mRNA level, percentage over the untreated CDAA + 1% cholesterol rats [4]: 110% ± 23% | TIMP1 mRNA level, percentage over the untreated CDAA + 1% cholesterol rats [4]: 110% ± 43% | αSMA mRNA level, percentage over the untreated CDAA + 1% cholesterol rats [4]: 109% ± 68%

Cc1cc(F)c(C(=O)Nc2cccc(-c3nncn3C(C)C)n2)cc1-n1cnc(C2CC2)c1 [Selonsertib, reference compound]
hepatic fibrosis (histology, hepatic collagen content, PIIINP and TIMP-1) ([1]; elafibranor 3 mg/kg/day, selonsertib 30 mg/kg/day, alone or combined): improved hepatic fibrosis in this model, albeit to a minor extent than elafibranor

— US11478440B2, “Combination of Elafibranor or derivatives thereof with an anti-NASH, anti-fibrotic or anti-cholestatic agent” (GENFIT, priority 2017, dated 2022)
